# Experimental data reported in patent publication US20260042764A1, “COMPOSITIONS AND METHODS FOR INHIBITION OF KRAS” (TheRas, Inc., priority 2022, published 2026).
# Molecular target: T1, Avi-KRAS G12C (2-169) GTP/RAF1 RBD-3xFLAG (51-131) (Homo sapiens, UniProt P01116, G12C)
# T1 construct: Avi-KRAS G12C (2-169)
# Experiment: Raf1-KRAS G12C-GTP disruption HTRF assay (Biological Example 3)
# Assay type: binding
# Details: KRAS G12C, GTP-loaded
# In short: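 An HTRF assay measured disruption of 50 nM Avi-KRAS (2-169)-GTP (WT, G12C, G12D or G12V) bound to RAF1 RBD-3xFLAG (51-131). Buffer was Tris pH 7.5 with 5 mM MgCl2 and 10% DMSO. Compounds (30–0.005 μM, 3-fold, 10 points) were incubated 1 h at room temperature, and activity is given as % of DMSO.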
# T1 sequence (P01116 2-169 isoform P01116-2 G12C): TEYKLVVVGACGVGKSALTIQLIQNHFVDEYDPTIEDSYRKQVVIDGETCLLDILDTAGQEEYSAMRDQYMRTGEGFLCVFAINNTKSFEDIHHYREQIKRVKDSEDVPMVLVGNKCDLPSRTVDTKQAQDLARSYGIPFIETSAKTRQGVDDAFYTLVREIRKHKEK
row,SMILES,IC50 [nM]
1,"CCN(c1nc(OC[C@@]23CCCN2C[C@H](F)C3)nc2c(F)c(-c3ccc(F)c4sc(N)c(C#N)c34)c(C(F)(F)F)cc12)[C@H]1CCN(C(=O)CC(F)F)C1 (atropisomer, axis not shown) [Compound 611]",≤ 100
2,"CCN(c1nc(OC[C@@]23CCCN2C[C@H](F)C3)nc2c(F)c(-c3ccc(F)c4sc(N)c(C#N)c34)c(C(F)(F)F)cc12)[C@H]1C[C@@H]2CN(C)C(=O)N2C1 (atropisomer, axis not shown) [Compound 605]",100 to 1000
3,"CCN(c1nc(OC[C@@]23CCCN2C[C@H](F)C3)nc2c(F)c(-c3ccc(F)c4sc(N)c(C#N)c34)c(C(F)(F)F)cc12)[C@H]1CCN(C(=O)C2CN(C(C)=O)C2)C1 (atropisomer, axis not shown) [Compound 638]",≤ 100
4,"CCN(c1nc(OC[C@@]23CCCN2C[C@H](F)C3)nc2c(F)c(-c3ccc(F)c4sc(N)c(C#N)c34)c(C(F)(F)F)cc12)[C@H]1CC(=O)N(C2CC2)C1 (atropisomer, axis not shown) [Compound 615]",≤ 100
5,"CCN(c1nc(OC[C@@]23CCCN2C[C@H](F)C3)nc2c(F)c(-c3ccc(F)c4sc(N)c(C#N)c34)c(C(F)(F)F)cc12)[C@H]1CCN(C(=O)N2CC(OC)C2)C1 (atropisomer, axis not shown) [Compound 607]",≤ 100
6,"CCC(=O)N1CC[C@@H](N(C)c2nc(OC[C@@]34CCCN3C[C@H](F)C4)nc3c(F)c(-c4ccc(F)c5sc(N)c(C#N)c45)c(C(F)(F)F)cc23)[C@H]1C (atropisomer, axis not shown) [Compound 335]",100 to 1000
7,"CC(=O)N1CC[C@H](N(c2nc(OC[C@@]34CCCN3C[C@H](F)C4)nc3c(F)c(-c4ccc(F)c5sc(N)c(C#N)c45)c(C(F)(F)F)cc23)C2CC2)C1 (atropisomer, axis not shown) [Compound 608]",100 to 1000
8,"CCN(c1nc(OC[C@@]23CCCN2C[C@H](F)C3)nc2c(F)c(-c3ccc(F)c4sc(N)c(C#N)c34)c(C(F)(F)F)cc12)[C@H]1C[C@H]2CCC(=O)N2C1 (atropisomer, axis not shown; (aR)) [Compound 573, 2-amino-4-((S)-4-(ethyl((2S,7aR)-5-oxohexahydro-1H-pyrrolizin-2-yl)amino)-8-fluoro-2-(((2R,7aS)-2-fluorotetrahydro-1H-pyrrolizin-7a(5H)-yl)methoxy)-6-(trifluoromethyl)quinazolin-7-yl)-7-fluorobenzo[b]thiophene-3-carbonitrile]",≤ 100
9,CCN(c1nc(OC[C@@]23CCCN2C[C@H](F)C3)nc2c(F)c(-c3ccc(F)c4sc(N)c(C#N)c34)c(C(F)(F)F)cc12)[C@H]1CCN(C(=O)OC)C1 [Compound 394],100 to 1000
10,"CC(=O)N1CC[C@H](N(CCF)c2nc(OC[C@@]34CCCN3C[C@H](F)C4)nc3c(F)c(-c4ccc(F)c5sc(N)c(C#N)c45)c(C(F)(F)F)cc23)C1 (atropisomer, axis not shown) [Compound 622]",100 to 1000
11,"CCN(c1nc(OC[C@@]23CCCN2C[C@H](F)C3)nc2c(F)c(-c3ccc(F)c4sc(N)c(C#N)c34)c(C(F)(F)F)cc12)[C@H]1CCN(C(=O)[C@H]2CCO2)C1 (atropisomer, axis not shown) [Compound 577]",≤ 100
12,CCN(c1nc(OC[C@@]23CCCN2C[C@H](F)C3)nc2c(F)c(-c3ccc(F)c4sc(N)c(C#N)c34)c(C(F)(F)F)cc12)[C@H]1CCN(C(=O)C2CC2(F)F)C1 (stereo partly shown) [Compound 581],≤ 100
13,"CCN(c1nc(OC[C@@]23CCCN2C[C@H](F)C3)nc2c(F)c(-c3ccc(F)c4sc(N)c(C#N)c34)c(C(F)(F)F)cc12)[C@H]1CCN(C(=O)[C@@H]2CCO2)C1 (atropisomer, axis not shown) [Compound 603]",≤ 100
14,"CCN(c1nc(OC[C@@]23CCCN2C[C@H](F)C3)nc2c(F)c(-c3ccc(F)c4sc(N)c(C#N)c34)c(C(F)(F)F)cc12)[C@H]1CC(=O)N(CC(F)F)C1 (atropisomer, axis not shown) [Compound 613]",≤ 100
15,"C[C@@H]1[C@H](N(C)c2nc(OC[C@@]34CCCN3C[C@H](F)C4)nc3c(F)c(-c4ccc(F)c5sc(N)c(C#N)c45)c(C(F)(F)F)cc23)CCN1C(=O)C1CC1 (atropisomer, axis not shown) [Compound 333]",100 to 1000
16,[2H]C1([2H])O[C@@H]2C[C@H]1N(c1nc(OC[C@@]34CCCN3C[C@H](F)C4)nc3c(F)c(-c4ccc(F)c5sc(N)c(C#N)c45)c(C(F)(F)F)cc13)C2 [Compound 371],1000 to 10000
17,"CCN1C[C@@H](N(C)c2nc(OC[C@@]34CCCN3C[C@H](F)C4)nc3c(F)c(-c4ccc(F)c5sc(N)c(C#N)c45)c(C(F)(F)F)cc23)CC1=O (atropisomer, axis not shown) [Compound 636]",100 to 1000
18,"CCN(c1nc(OC[C@@]23CCCN2C[C@H](F)C3)nc2c(F)c(-c3ccc(F)c4sc(N)c(C#N)c34)c(C(F)(F)F)cc12)[C@H]1CCN(C(=O)N2CCN(C(C)=O)CC2)C1 (atropisomer, axis not shown) [Compound 619]",100 to 1000
19,"C[C@H](c1cccnc1N)N(C)c1nc(OC[C@@]23CCCN2C[C@H](F)C3)nc2c(F)c(-c3ccc(F)c4sc(N)c(C#N)c34)c(C(F)(F)F)cc12 (atropisomer, axis not shown) [Compound 600]",≤ 100
20,"CCN(c1nc(OC[C@@]23CCCN2C[C@H](F)C3)nc2c(F)c(-c3ccc(F)c4sc(N)c(C#N)c34)c(C(F)(F)F)cc12)[C@H]1CC(=O)N(C)C1 (atropisomer, axis not shown) [Compound 614]",100 to 1000

# The next lines start with the values.
row,IC50 [nM],SMILES
1,100 to 1000,Cc1c(C(=O)N2CCCC2)nn2c1CN(c1nc(OCC34CCCN3CC(F)C4)nc3c(F)c(-c4ccc(F)c5sc(N)c(C#N)c45)c(C(F)(F)F)cc13)CC2 (stereo not shown) [Compound 744]
2,≤ 100,"CCN(c1nc(OC[C@@]23CCCN2C[C@H](F)C3)nc2c(F)c(-c3ccc(F)c4sc(N)c(C#N)c34)c(C(F)(F)F)cc12)[C@H]1CCN(C(=O)O[C@@H]2CCOC2)C1 (atropisomer, axis not shown) [Compound 683]"
3,> 10000,N#Cc1c(N)sc2c(F)ccc(-c3c(C(F)(F)F)cc4c(N(C5CC5)[C@H]5CCS(=O)(=O)C5)nc(OC[C@@]56CCCN5C[C@H](F)C6)nc4c3F)c12 [Compound 702]
4,≤ 100,"C=C(C)C(=O)N1CC[C@H](N(CC)c2nc(OC[C@@]34CCCN3C[C@H](F)C4)nc3c(F)c(-c4ccc(F)c5sc(N)c(C#N)c45)c(C(F)(F)F)cc23)C1 (atropisomer, axis not shown) [Compound 673]"
5,100 to 1000,"CCN(c1nc(OC[C@@]23CCCN2C[C@H](F)C3)nc2c(F)c(-c3ccc(F)c4sc(N)c(C#N)c34)c(C(F)(F)F)cc12)[C@H]1CCN(C(=O)c2ccns2)C1 (atropisomer, axis not shown) [Compound 726]"
6,≤ 100,"CCN(c1nc(OC[C@@]23CCCN2C[C@H](F)C3)nc2c(F)c(-c3ccc(F)c4sc(N)c(C#N)c34)c(C(F)(F)F)cc12)[C@H]1CCN(C(=O)N(C)C)[C@@H]1C (atropisomer, axis not shown) [Compound 749]"
7,1000 to 10000,CCN(c1nc(OC[C@@H]2C[C@@H](OC)CN2C)nc2c(F)c(-c3ccc(F)c4sc(N)c(C#N)c34)c(C(F)(F)F)cc12)[C@H]1CCN(C(=O)C(C)C)C1 [Compound 706]
8,100 to 1000,N#Cc1c(N)sc2c(F)ccc(-c3c(C(F)(F)F)cc4c(N5CCn6nc(C(=O)N7CCOCC7)cc6C5)nc(OCC56CCCN5CC(F)C6)nc4c3F)c12 (stereo not shown) [Compound 646]
9,100 to 1000,CCN(c1nc(OC[C@]23CCCN2C[C@H](F)C3)nc2c(F)c(-c3ccc(F)c4sc(N)c(C#N)c34)c(C(F)(F)F)cc12)[C@H]1CCN(C(=O)C(C)C)C1 [Compound 705]
10,100 to 1000,"CCN(c1nc(OC[C@@]23CCCN2C[C@H](F)C3)nc2c(F)c(-c3ccc(F)c4sc(N)c(C#N)c34)c(C(F)(F)F)cc12)[C@H]1CCN(C(=O)[C@@H]2C[C@@H]2C)C1 (atropisomer, axis not shown) [Compound 689]"
11,1000 to 10000,"CCN(c1nc(OC[C@@]23CCCN2C[C@H](F)C3)nc2c(F)c(-c3ccc(F)c4sc(N)c(C#N)c34)c(C(F)(F)F)cc12)[C@@H]1CC(=O)N(C2CC2)C1 (atropisomer, axis not shown) [Compound 703]"
12,100 to 1000,Cc1c(C(=O)N2CCOCC2)nn2c1CN(c1nc(OCC34CCCN3CC(F)C4)nc3c(F)c(-c4ccc(F)c5sc(N)c(C#N)c45)c(C(F)(F)F)cc13)CC2 (stereo not shown) [Compound 741]
13,100 to 1000,"CCN(c1nc(OC[C@@]23CCCN2C[C@H](F)C3)nc2c(F)c(-c3ccc(F)c4sc(N)c(C#N)c34)c(C(F)(F)F)cc12)[C@H]1C[C@@H](C)N(C(=O)[C@H]2CCO2)C1 (atropisomer, axis not shown) [Compound 752]"
14,≤ 100,CCN(c1nc(OC[C@@]23CCCN2C[C@H](F)C3)nc2c(F)c(-c3ccc(F)c4sc(N)c(C#N)c34)c(C(F)(F)F)cc12)[C@H]1CCN(C(=O)C2C[C@@H]2F)C1 (stereo partly shown) [Compound 692]
